From patent publication US20060287319A1, “Anti-viral compositions comprising heterocyclic substituted phenyl furans and related compounds” (priority 2005, published 2006)

How the values were obtained:
[1] = test system: HIV-1 IIIB; assay: HIV-1-mediated cytopathic effect (CPE); assay type: cell-based; settings: read-out: EC50 (μM) (M ± SD) for inhibition of CPE
From the text: We thus purchased these compounds and tested their inhibitory activity on: 1) HIV-1 replication (p24 production); 2) HIV-1-mediated cytopathic effect (CPE); and 3) HIV-1 Env-induced cell-cell fusion; and their cytotoxicity to MT-2 cells.

[2] = test system: HIV-1 AZT-R, a strain resistant to AZT; settings: read-out: IC50 (μM) (Mean ± SD); HIV-1 strain AZT-R
Method: (§1) Assessment of anti-HIV-1 infectivity. The inhibitory activity of compounds on infection by laboratory-adapted HIV-1 strains was determined as previously described (34). In brief, 1×10^4 MT-2 cells were infected with HIV-1 at 100 TCID50 (50% tissue culture infective dose) in 200 μl of RPMI 1640 medium containing 10% FBS in the presence or absence of compounds at graded concentrations overnight. For the time-of-addition assay, compounds were added at various time post-infection. Then the culture supernatants were removed and fresh media were added. On the fourth day post-infection, 100 μl of culture supernatants were collected from each well, mixed with equal volumes of 5% Triton X-100 and assayed for p24 antigen, which was quantitated by ELISA (23). Briefly, the wells of polystyrene plates (Immulon 1B, Dynex Technology, Chantilly, Va.) were coated with HIV immunoglobulin (HIVIG), which was prepared from plasma of HIV-seropositive donors with high neutralizing titers against HIV-1IIIB as previously described (36) in 0.085 M carbonate-bicarbonate buffer (pH 9.6) at 4° C. overnight, followed by washes with PBS-T buffer (0.01M PBS containing 0.05% Tween-20) and blocking with PBS containing 1% dry fat-free milk (Bio-Rad Inc., Hercules, Calif.). Virus lysates were added to the wells and incubated at 37° C. for 1 h. […] Reactions were terminated by addition of 1N H2SO4. Absorbance at 450 nm was recorded in an ELISA reader (Ultra 384, Tecan). Recombinant protein p24 (US Biological, Swampscott, Mass.) was included for establishing standard dose response curve.

[3] = test system: HIV-1 MN; settings: read-out: IC50 (μM) (Mean ± SD); HIV-1 strain MN
Method: as §1

[4] = test system: HIV-1 SF2; settings: read-out: IC50 (μM) (Mean ± SD); HIV-1 strain SF2
Method: as §1

[5] = test system: HIV-1 RF; settings: read-out: IC50 (μM) (Mean ± SD); HIV-1 strain RF
Method: as §1

[6] = test system: laboratory-adapted HIV-1 strains, including RF, SF2, MN, and AZT-R; settings: dose-dependent
Method: as §1

Row | SMILES | EC50 [1] [µM] | IC50 [2] [µM] | IC50 [3] [µM] | IC50 [4] [µM] | IC50 [5] [µM] | IC50 values, infection by other laboratory-adapted HIV-1 strains [6]
1 | O=C(O)c1cccc(-c2ccc(/C=C3\SC(=S)N(c4ccc(Cl)cc4Cl)C3=O)o2)c1 [NB231] | 0.525 ± 0.126 | 0.823 ± 0.053 | 1.69 ± 0.044 | 4.68 ± 0.559 | 0.152 ± 0.029 | nanomolar range
2 | O=C(O)c1cc(-c2ccc(/C=C3\SC(=S)N(CCc4ccccc4)C3=O)o2)ccc1Cl [NB206] | 0.092 ± 0.002 | 0.046 ± 0.004 | 0.174 ± 0.027 | 0.261 ± 0.062 | 0.034 ± 0.014 | nanomolar range
3 | CCN1C(=O)/C(=C/c2ccc(-c3cccc(C(=O)O)c3)o2)SC1=S [NB179] | 0.924 ± 0.077 | 4.39 ± 0.471 | 2.93 ± 0.362 | 11.9 ± 1.7 | 4.2 ± 0.256 | nanomolar range
